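Where inhibition never reached the appropriate level, the endpoint shown equals the highest concentration tested. Otherwise, values were interpolated linearly from a five-concentration, 48-hour dose response in 96-well plates. The concentration for 50% growth inhibition is given as GI50.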 Activity calls are given as the source filed them. Rule as the data show it: active = GI50 up to about 1.1 µM and inactive = higher.
Columns and labels:
Assay in all cases: DTP human tumour cell line panel, 48 h
[1] = test system: MDA-MB-231
[2] = test system: LOX IMVI
[3] = test system: SW-620
[4] = test system: MOLT-4
[5] = test system: CAKI-1
[6] = test system: Malme-3M
[7] = test system: NCI-H226
[8] = test system: OVCAR-3
[9] = test system: IGROV-1
[10] = test system: A498
[11] = test system: K562
[12] = test system: CCRF-CEM
[13] = test system: HCT-15
[14] = test system: OVCAR-5
[15] = test system: UACC-257
[16] = test system: HL-60
[17] = test system: SR
[18] = test system: SNB-75
[19] = test system: UO-31
[20] = test system: T47D

| SMILES | GI50 [1] | GI50 [2] | GI50 [3] | GI50 [4] | GI50 [5] | GI50 [6] | GI50 [7] | GI50 [8] | GI50 [9] | GI50 [10] | GI50 [11] | GI50 [12] | GI50 [13] | GI50 [14] | GI50 [15] | GI50 [16] | GI50 [17] | GI50 [18] | GI50 [19] | GI50 [20] |
| --- | --- | --- | --- | --- | --- | --- | --- | --- | --- | --- | --- | --- | --- | --- | --- | --- | --- | --- | --- | --- |
| O=C(NCCO)c1c(O)c2ccccc2[nH]c1=O | > 100 µM (inactive) | > 100 µM (inactive) | > 100 µM (inactive) | > 100 µM (inactive) | > 100 µM (inactive) | > 100 µM (inactive) | > 100 µM (inactive) | > 100 µM (inactive) | > 100 µM (inactive) | > 100 µM (inactive) | > 100 µM (inactive) | > 100 µM (inactive) | 62.2 µM | > 100 µM (inactive) | > 100 µM (inactive) | > 100 µM (inactive) | > 100 µM (inactive) | > 100 µM (inactive) | 83.6 µM (inactive) |  |
| C/C(=N\Nc1nc2cccnc2s1)c1ccccn1 | < 0.01 µM (active) |  | < 0.0143 µM (active) | < 0.01 µM (active) | < 0.0105 µM (active) | < 0.01 µM (active) | < 0.0155 µM (active) | < 0.0169 µM (active) | < 0.0141 µM (active) | > 100 µM (inactive) | < 0.0149 µM (active) | < 0.01 µM (active) | < 0.0218 µM | 0.845 µM (active) | < 0.01 µM (active) | < 0.01 µM (active) | 0.0335 µM (active) | 0.451 µM (active) | 0.0158 µM (active) |  |
| Brc1cccc(Nc2ncnc3sc4c(c23)CCC2(C4)OCCO2)c1 | 87.1 µM (inactive) | 18.6 µM (inactive) | 0.0203 µM (active) |  | 10.5 µM (inactive) | 39.2 µM (inactive) | 18.6 µM (inactive) | 28.4 µM (inactive) | 8.73 µM (inactive) | 15.3 µM (inactive) |  |  | 25.4 µM | > 100 µM (inactive) | 26.7 µM (inactive) |  |  | 23.1 µM (inactive) | 2.07 µM (inactive) | 5.61 µM (inactive) |
| CCOC(=O)C(C)(C(=O)OCC)/C(Cl)=C\Cl | > 100 µM (inactive) | > 100 µM (inactive) | > 100 µM (inactive) | > 100 µM (inactive) | > 100 µM (inactive) | > 100 µM (inactive) | > 100 µM (inactive) | > 100 µM (inactive) | > 100 µM (inactive) |  | > 100 µM (inactive) | > 100 µM (inactive) |  | > 100 µM (inactive) | > 100 µM (inactive) | > 100 µM (inactive) | > 100 µM (inactive) | 66.1 µM (inactive) | > 100 µM (inactive) | > 100 µM (inactive) |
| CN(C)C12C=CC=CC3=C(c4ccccc4)C(c4ccccc4)=C(c4ccccc4)C31c1ccccc1C2 (stereo not given) | > 100 µM (inactive) |  | > 100 µM (inactive) | > 100 µM (inactive) |  |  |  |  | > 100 µM (inactive) |  | > 100 µM (inactive) | > 100 µM (inactive) | > 100 µM | > 100 µM (inactive) | > 100 µM (inactive) | > 100 µM (inactive) | > 100 µM (inactive) | > 100 µM (inactive) | > 100 µM (inactive) | > 100 µM (inactive) |
| Cc1cc(S(=O)(=O)NC2=Nc3cccc4cccc(c34)N2)c(S)cc1Cl | > 100 µM (inactive) | 70.5 µM (inactive) | 78.7 µM (inactive) | 41.6 µM (inactive) | > 100 µM (inactive) | > 100 µM (inactive) | > 100 µM (inactive) | 53.7 µM (inactive) | 63.5 µM (inactive) |  | > 100 µM (inactive) | 44.5 µM (inactive) | > 100 µM | > 100 µM (inactive) | > 100 µM (inactive) | 77.4 µM (inactive) | 60 µM (inactive) | > 100 µM (inactive) | > 100 µM (inactive) | > 100 µM (inactive) |
| COc1ccc2c(c1)CCc1[nH]c3ccccc3c1CCCC2 | > 10 µM (inactive) | > 10 µM (inactive) | > 10 µM (inactive) | > 10 µM (inactive) | > 10 µM (inactive) | > 10 µM (inactive) |  | > 10 µM (inactive) | > 10 µM (inactive) |  | > 10 µM (inactive) | > 10 µM (inactive) | > 10 µM | > 10 µM (inactive) | > 10 µM (inactive) | > 10 µM (inactive) | > 10 µM (inactive) | > 10 µM (inactive) |  | > 10 µM (inactive) |
| COc1nc2sc3c(c2c(=O)n1CCCSSCCCn1c(OC)nc2sc4c(c2c1=O)CCCC4)CCCC3 | > 100 µM (inactive) | > 100 µM (inactive) |  | > 100 µM (inactive) | > 100 µM (inactive) | > 100 µM (inactive) | > 100 µM (inactive) |  | > 100 µM (inactive) |  | > 100 µM (inactive) | > 100 µM (inactive) | > 100 µM | > 100 µM (inactive) | > 100 µM (inactive) |  |  | > 100 µM (inactive) | > 100 µM (inactive) | > 100 µM (inactive) |
